From patent US4560693A, “[1,3]-Dioxolo[4,5-f]benzimidazoles and [1,4]-dioxino[2,3-f]benzimidazoles” (Byk Gulden Lomberg Chemische Fabrik GmbH, priority 1983, dated 1985)

Tests used:
[1] = tested on: gastric lesion formation (rat stomach); experiment: Antiulcerogenic action / protective effect on the stomach (modified Shay rat: pyloric ligature plus oral acetylsalicylic acid); type: in vivo; details: rats, perorally, 1 h before pyloric ligature, 100 mg/kg acetylsalicylic acid orally, dose reducing lesion index by 50% vs control, 4 h, read-out: Protective effect on the stomach: Inhibition of the lesion index, ED50
Experimental: (§1) In these experiments, the compounds according to the invention were compared with prior art compounds (A-D) of UK Patent Application GB No. 2 082 580. The compounds investigated are numbered as follows:
(§2) The influence of the compounds according to the invention on gastric lesion formation induced by pyloric ligature (4 h; so-called Shay rat) and oral administration of 100 mg/kg of acetylsalicylic acid, and the gastric secretion (HCl) in the course of 4 h in rats is shown in the following table.
(§3) *ED25 und ED50 = dose which reduces the lesion index or the HCl secretion
(§4) (4h) in the rat stomach by 25 and, respectively, 50% in the treated group
(§5) in comparison with the control group.
The antiulcerogenic action was tested by the so-called Shay rat method:
(§6) Ulcers are caused in rats which have been fasted for 24 hours (female, 180-200 g, 4 animals per cage on a high grid) by pyloric ligature (under diethyl ether anesthesia) and oral administration of 100 mg/10 ml/kg of acetylsalicylic acid. The substances to be tested are administered orally (10 ml/kg) one hour before the pyloric ligature. The wound is closed by means of Michel clamps. 4 hours thereafter, the animals are sacrificed under ether anesthesia by Atlas dislocation and resection of the stomach. The stomach is opened longitudinally and attached to a cork plate, after the amount of gastric juice secreted (volume) and later its HCl content (titration with sodium hydroxide solution) have first been determined; the number and size (=diameter) of the ulcers present are determined under a stereomicroscope at 10-fold magnification. The product of the degree of severity (according to the following points scale) and number of ulcers serves as the individual lesion index.
Ulcer diameter 0.1-1.4 mm: 1
(§7) The reduction in the average lesion index of each treated group compared with the control group (=100%) serves as a measure of the antiulcerogenic effect.

[2] = tested on: gastric secretion (HCl); experiment: Inhibition of gastric secretion (HCl) in the Shay rat over 4 h; type: in vivo; details: rats; for ED25 / ED50: Rattus norvegicus, po, perorally; for ED25: dose reducing HCl secretion (4 h) by 25% vs control; for ED50: dose reducing HCl secretion (4 h) by 50% vs control; for Gastric secretion: % inhibition of HCl secretion: after administration of the antiulcerous ED50, 4 h
Experimental: as §1, §2, §3, §4, §5
**after administration of the antiulcerous ED50.
as §6, §7

SMILES | ED50 [1] [mg/kg] | ED25 [2] [mg/kg] | ED50 [2] [mg/kg] | Gastric secretion: % inhibition of HCl secretion [2] [%]
COc1ccnc(C[S+]([O-])c2nc3cc4c(cc3[nH]2)OC(F)(F)O4)c1 (stereo not drawn) [Serial No. 1, 2,2-Difluoro-6-[(4-methoxy-2-pyridyl)methylsulfinyl]-5H--[1,3]-dioxolo[4,5-f]benzimidazole] | 0.6 | 0.6 | 0.9 | 25
COc1ccnc(C[S+]([O-])c2nc3cc4c(cc3[nH]2)OC(F)(F)O4)c1C (stereo not drawn) [Serial No. 2, 2,2-difluoro-6-[(4-methoxy-3-methyl-2-pyridyl)methylsulfinyl]-5H-[1,3]-dioxolo-[4,5-f]benzimidazole] | 0.4 | < 0.3 | 0.6 | 30
COc1ccnc(C[S+]([O-])c2nc3cc4c(cc3[nH]2)OC(F)C(F)(F)O4)c1 (stereo not drawn) [Serial No. 3, 6,6,7-Trifluoro-6,7-dihydro-2-[(4-methoxy-2-pyridyl)methylsulfinyl]-1H-[1,4]-dioxino[2,3-f]benzimidazole] | 0.45 | 0.5 | 1.4 | 23
COc1ccnc(CSc2nc3cc4c(cc3[nH]2)OC(F)(F)C(F)O4)c1 (stereo not drawn) [Serial No. 4, 6,6,7-Trifluoro-6,7-dihydro-2-[(4-methoxy-2-pyridyl)-methylthio]-1H--[1,4]-dioxino[2,3-f]benzimidazole] | 0.6 | 1 | 1.7 | 25
COc1ccnc(C[S+]([O-])c2nc3cc4c(cc3[nH]2)OC(F)C(F)(F)O4)c1C (stereo not drawn) [Serial No. 5, 6,6,7-trifluoro-6,7-dihydro-2-[(4-methoxy-3-methyl-2-pyridyl)methylsulfinyl]-1H-[1,4]-dioxino[2,3-f]benzimidazole] | 0.35 | < 0.3 | 0.6 | 35
COc1ccnc(CSc2nc3cc4c(cc3[nH]2)OC(F)C(F)(F)O4)c1C (stereo not drawn) [Serial No. 6, 6,6,7-trifluoro-6,7-dihydro-2-[(4-methoxy-3-methyl-2-pyridyl)methylthio]-1H-[1,4]-dioxino[2,3-f]benzimidazole] | 0.6 | 0.7 | 1.4 | 20
COc1ccnc(CSc2nc3cc4c(cc3[nH]2)OC(F)(F)O4)c1C [Serial No. 7, 2,2-difluoro-6-[(4-methoxy-3-methyl-2-pyridyl)methylthio]-5H-[1,3]-dioxolo[4,5-f]benzimidazole] | 0.6 | 0.6 | > 1 | 25
COc1cc(C[S+]([O-])c2nc3cc4c(cc3[nH]2)OC(F)(F)O4)ncc1C (stereo not drawn) [Serial No. 8, 2,2-difluoro-6-[(4-methoxy-5-methyl-2-pyridyl)methylsulfinyl]-5H-[1,3]-dioxolo[4,5-f]benzimidazole] | 0.5 | 1 | 2.5 | 17
COc1c(C)cnc(C[S+]([O-])c2nc3cc4c(cc3[nH]2)OC(F)C(F)(F)O4)c1C (stereo not drawn) [Serial No. 9, 6,6,7-trifluoro-6,7-dihydro-2-[(4-methoxy-3,5-dimethyl-2-pyridyl)methylsulfinyl]-1H-[1,4]-dioxino[2,3-f]benzimidazole] | 0.5 | 0.7 | 1 | 15
COc1ccnc(C[S+]([O-])c2nc3cc4c(cc3[nH]2)OC(F)(F)C(F)(Cl)O4)c1C (stereo not drawn) [Serial No. 10, 6-Chloro-6,7,7-trifluoro-6,7-dihydro-2-[(4-methoxy-3-methyl-2-pyridyl)methylsulfinyl]-1H-[1,4]-dioxino[2,3-f]benzimidazole] | 0.4 | 0.4 | 0.7 | 25
COc1ccnc(CSc2nc3cc4c(cc3[nH]2)OCO4)c1 [Serial No. A, 6-[(4-Methoxy-2-pyridyl)methylthio]-5H--[1,3]-dioxolo-[4,5-f]benzimidazole, reference compound] | > 10 | > 10 | – | –
COc1ccnc(C[S+]([O-])c2nc3cc4c(cc3[nH]2)OCO4)c1 (stereo not drawn) [Serial No. B, 6-[(4-Methoxy-2-pyridyl)methylsulffinyl]-5H--[1,3]-dioxolo-[4,5-f]benzimidazole, reference compound] | ~5 | – | – | –
COc1ccnc(CSc2nc3cc4c(cc3[nH]2)OCCO4)c1 [Serial No. C, 6,7-Dihydro-2-[(4-methoxy-2-pyridyl)methylthio]-1H--[1,4]-dioxino[2,3-f]benzimidazole, reference compound] | 30 | > 30 | > 30 | 19
COc1ccnc(C[S+]([O-])c2nc3cc4c(cc3[nH]2)OCCO4)c1 (stereo not drawn) [Serial No. D, 6,7-Dihydro-2-[(4-methoxy-2-pyridyl)methylsulfinyl]-1H--[1,4]-dioxino[2,3-f]benzimidazole, reference compound] | 30 | > 30 | > 30 | 0
